Here are results for 24 compounds from patent US9505728B2, “Triazolone compounds and uses thereof” (INCEPTION 2, INC., priority 2012, dated 2016).

This experiment concerns the target T1, Human PPARα (Homo sapiens, UniProt Q07869).
T1 construct: host or cells: proprietary non-human mammalian cells
T1 sequence (Q07869 1-468): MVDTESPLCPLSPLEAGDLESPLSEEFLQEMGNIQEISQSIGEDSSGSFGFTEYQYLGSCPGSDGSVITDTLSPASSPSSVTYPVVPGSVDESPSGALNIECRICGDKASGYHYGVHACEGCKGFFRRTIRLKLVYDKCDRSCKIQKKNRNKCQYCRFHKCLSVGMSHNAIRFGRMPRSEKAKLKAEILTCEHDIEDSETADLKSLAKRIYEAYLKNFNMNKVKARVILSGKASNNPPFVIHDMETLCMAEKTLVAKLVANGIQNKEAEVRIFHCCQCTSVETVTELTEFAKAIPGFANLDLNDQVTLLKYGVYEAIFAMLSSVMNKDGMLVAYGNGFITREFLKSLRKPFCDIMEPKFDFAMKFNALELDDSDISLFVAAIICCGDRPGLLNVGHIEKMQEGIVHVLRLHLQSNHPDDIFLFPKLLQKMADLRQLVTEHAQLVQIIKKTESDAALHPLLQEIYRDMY
Briefly: Human PPARα Reporter Assay (luciferase). The class given is cell-based. The conditions noted are these: human PPARα reporter cells, overnight incubation, antagonism; read-out: Luciferase IC50. The protocol:
Human PPARα Reporter Assay
The screening of test compounds for agonist or antagonist activities against human PPARα receptors was performed using a commercial kit, Human PPARα Reporter Assay System (Indigo Biosciences, Cat. #IB00111).
This nuclear receptor assay system utilizes proprietary non-human mammalian cells engineered to provide constitutive, high-level expression of Human PPARα. Because these cells incorporate a PPARα-responsive luciferase reporter gene, quantifying expressed luciferase activity provides a sensitive surrogate measure of PPARα activity in the treated cells. The primary application of this reporter assay system is in the screening of test samples to quantify any functional activity, either agonist or antagonist, that they may exert against human PPARα.
Briefly, reporter cells are dispensed into wells of the assay plate and then immediately dosed with test compounds. Following an overnight incubation, the treatment media is discarded and Luciferase Detection Reagent (LDR) is added. The intensity of light emission from the ensuing luciferase reaction provides a sensitive measure that is directly proportional to the relative level of PPARα activation in the reporter cells.
Background: Reporter assays use an easily measured gene product as a stand-in for the process of interest.
Take `CCn1c(CCCc2ccc(-c3cccc(CC(=O)O)c3)cc2)nn(Cc2ccc(C(C)(C)C)c(C)c2)c1=O` [Example 115, 2-(4′-(3-(1-(3-Methyl-4-(tert-butyl)benzyl)-4-ethyl-5-oxo-4,5-dihydro-1H-1,2,4-triazol-3-yl)propyl)-[1,1′-biphenyl]-3-yl) acetic acid]: the IC50 (as a rule, the concentration that gives 50% inhibition) came to 116 nM.

Turning to `CCn1c(CCCc2ccc(-c3cnc(OC)c(C(=O)O)n3)cc2)nn(Cc2ccc(C(C)(C)C)cc2)c1=O` [Example 162, 6-(4-(3-(1-(4-(tert-Butyl)benzyl)-4-ethyl-5-oxo-4,5-dihydro-1H-1,2,4-triazol-3-yl)propyl)phenyl)-3-methoxypyrazine-2-carboxylic acid], the IC50 worked out at 630 nM.

In the case of `CCn1c(CCCc2ccc(-c3cc(CC(=O)O)ccc3OC)cc2)nn(Cc2ccc(C(C)(C)C)cc2)c1=O` [Example 20, 2-(4′-(3-(1-(4-(tert-Butyl)benzyl)-4-ethyl-5-oxo-4,5-dihydro-1H-1,2,4-triazol-3-yl)propyl)-6-methoxy-[1,1′-biphenyl]-3-yl)acetic acid], the IC50 was determined as 1830 nM.

Consider `CCn1c(CCCc2ccc(-c3cc(N)ccn3)cc2)nn(Cc2ccc(C(C)(C)C)cc2)c1=O` [Example 11, 3-(3-(4-(4-Aminopyridin-2-yl)phenyl)propyl)-1-(4-(tert-butyl)benzyl)-4-ethyl-1H-1,2,4-triazol-5(4H)-one], for which the IC50 was 157 nM. The result for `CCn1c(COCc2ccc(-c3cccc(CC(=O)O)c3)cc2)nn(Cc2ccc(C(C)(C)C)cc2)c1=O` [Example 27, 2-(4′(((1-(4-(tert-Butyl)benzyl)-4-ethyl-5-oxo-4,5-dihydro-1H-1,2,4-triazol-3-yl)methoxy)methyl)-[1,1′-biphenyl]-3-yl)acetic acid] reads 2170 nM; that for `CC(C)(C)c1ccc(Cn2nc(CCCc3ccc(-c4ccc(C5(O)COC5)cc4)cc3)[nH]c2=O)cc1` [Example 167, 1-(4-(tert-Butyl)benzyl)-3-(3-(4%(3-hydroxyoxetan-3-yl)-[1,1′-biphenyl]-4-yl)propyl)-1H-1,2,4-triazol-5(4H)-one], 454 nM; that for `CCn1c(CCCc2ccc(-c3cccc(NC(=O)c4ccccc4)n3)cc2)nn(Cc2ccc(C(C)(C)C)cc2)c1=O` [Example 97, N-(6-{4-[3-(1-{[4-(tert-Butyl)phenyl]methyl}-4-ethyl-5-oxo(1,2,4-triazolin-3-yl))propyl]phenyl}(2-pyridyl))benzamide], 745 nM.

Consider `CCn1c(CCCc2ccc(-c3ncc(OC)c(C(=O)O)n3)cc2)nn(Cc2ccc(C(C)(C)C)cc2)c1=O` [Example 181, 2-(4-(3-(1-(4-(tert-Butyl)benzyl)-4-ethyl-5-oxo-4,5-dihydro-1H-1,2,4-triazol-3-yl)propyl)phenyl)-5-methoxypyrimidine-4-carboxylic acid], for which the IC50 was determined as 846 nM. In the case of `CCn1c(CCCc2ccc(-c3ccc(OC)c(CC(=O)O)c3)c(O)c2)nn(Cc2ccc(C(C)(C)C)cc2)c1=O` [Example 145, 2-(4′-(3-(1-(4-(tert-Butyl)benzyl)-4-ethyl-5-oxo-4,5-dihydro-1H-1,2,4-triazol-3-yl)propyl)-2′-hydroxy-4-methoxy-[1,1′-biphenyl]-3-yl) acetic acid], the IC50 was 692 nM. Then `CCn1c(CCCc2ccc(-c3cc(OC)cc(C(=O)O)c3)cc2)nn(Cc2ccc(C(C)(C)C)cc2)c1=O` [Example 193, 3-{4-[3-(1-{[4-(tert-Butyl)phenyl]methyl}-4-ethyl-5-oxo(1,2,4-triazolin-3-yl))propyl]phenyl}-5-methoxybenzoic acid], with 21 nM. With `CCn1c(CCCc2ccc(-c3ccc(OC)c(NS(=O)(=O)C4CC4)n3)cc2)nn(Cc2ccc(C(C)(C)C)cc2)c1=O` [Example 190, 1-{[4-(tert-Butyl)phenyl]methyl}-4-ethyl-3-[3-(4-{6-[(cyclopropylsulfonyl)amino]-5-methoxy(2-pyridyl)}phenyl)propyl]-1,2,4-triazolin-5-one], the IC50 stood at 12 nM. The result for `CCn1c(CCCc2ccc(-c3cncc(N)c3)cc2)nn(Cc2ccc(C(C)(C)C)cc2)c1=O` [Example 109, 3-(3-(4-(5-Aminopyridin-3-yl)phenyl)propyl)-1-(4-(tert-butyl)benzyl)-4-ethyl-1H-1,2,4-triazol-5(4H)-one] reads 590 nM.

As for `CCn1c(CCCc2ccc(-c3ccc(C(F)(F)F)c(C(=O)O)c3)cc2)nn(Cc2ccc(C(C)(C)C)cc2)c1=O` [Example 134, 4′-(3-(1-(4-(tert-Butyl)benzyl)-4-ethyl-5-oxo-4,5-dihydro-1H-1,2,4-triazol-3-yl)propyl)-4-(trifluoromethyl)-[1,1′-biphenyl]-3-carboxylic acid], the IC50 is 109 nM. For `CCn1c(CCCc2ccc(-c3ccc(C4(C(=O)O)CC4)cc3)cc2)nn(Cc2ccc(C(C)(C)C)cc2)c1=O` [Example 137, 1-(4′-(3-(1-(4-(tert-Butyl)benzyl)-4-ethyl-5-oxo-4,5-dihydro-1H-1,2,4-triazol-3-yl)propyl)-[1,1′-biphenyl]-4-yl)cyclopropanecarboxylic acid], the IC50 turned out to be 676 nM.

`CCn1c(CCCc2ccc(-c3cccc(C(=O)C(=O)NC4CC4)c3)cc2)nn(Cc2ccc(C(C)(C)C)cc2)c1=O` [Example 57, 2-(4′-(3-(1-(4-(tert-Butyl)benzyl)-4-ethyl-5-oxo-4,5-dihydro-1H-1,2,4-triazol-3-yl)propyl)-[1,1′-biphenyl]-3-yl)-N-cyclopropyl-2-oxoacetamide]: the IC50 turned out to be 175 nM. Regarding `CCn1c(CCCc2ccc(-c3ncc(NS(=O)(=O)c4ccccc4)cn3)cc2)nn(Cc2ccc(C(C)(C)C)cc2)c1=O` [Example 108, N-(2-(4-(3-(1-(4-(tert-Butyl)benzyl)-4-ethyl-5-oxo-4,5-dihydro-1H-1,2,4-triazol-3-yl)propyl)phenyl)pyrimidin-5-yl)benzenesulfonamide], the half-maximal inhibitory concentration (IC50) came to 165 nM. The result for `CCn1c(CCCc2ccc(-c3ccc(C)c(C(=O)O)c3)cc2)nn(Cc2ccc(C(C)(C)C)cc2)c1=O` [Example 132, 4′-(3-(1-(4-(tert-Butyl)benzyl)-4-ethyl-5-oxo-4,5-dihydro-1H-1,2,4-triazol-3-yl)propyl)-4-methyl-[1,1′-biphenyl]-3-carboxylic acid] reads 12 nM.

As for `CCn1c(CCCc2ccc(-c3cccc(NS(=O)(=O)N(C)C)c3)cc2)nn(Cc2ccc(C(C)(C)C)cc2)c1=O` [Example 107, 3-{3-[4-(3-{[(Dimethylamino)sulfonyl]amino}phenyl)phenyl]propyl}-1-{[4-(tert-butyl)phenyl]methyl}-4-ethyl-1,2,4-triazolin-5-one], the IC50 came out at 683 nM.

Take `CCn1c(CCCc2ccc(-c3ccc(OC)c(CC(=O)NS(=O)(=O)c4ccccc4)c3)cc2)nn(Cc2ccc(C(C)(C)C)cc2)c1=O` [Example 136, 2-(4′-(3-(1-(4-(tert-Butyl)benzyl)-4-ethyl-5-oxo-4,5-dihydro-1H-1,2,4-triazol-3-yl)propyl)-4-methoxy-[1,1′-biphenyl]-3-yl)-N-(phenylsulfonyl)acetamide]: the IC50 worked out at 41 nM. The result for `CCn1c(CCCc2ccc(-c3ccc(C)c(NS(=O)(=O)c4ccccc4)c3)cc2)nn(Cc2ccc(C(C)(C)C)cc2)c1=O` [Example 152, 1-{[4-(tert-Butyl)phenyl]methyl}-4-ethyl-3-[3-(4-{4-methyl-3-[(phenylsulfonyl)amino]phenyl}phenyl)propyl]-1,2,4-triazolin-5-one] reads 160 nM. The result for `CCn1c(CCCc2ccc(-c3cccc(NS(=O)(=O)c4ccc(C(F)(F)F)cc4)n3)cc2)nn(Cc2ccc(C(C)(C)C)cc2)c1=O` [Example 82, 1-{[4-(tert-Butyl)phenyl]methyl}-4-ethyl-3-(3-{4-[6-({[4-(trifluoromethyl)phenyl]sulfonyl}amino)(2-pyridyl)]phenyl}propyl)-1,2,4-triazolin-5-one] reads 181 nM. The result for `CCn1c(CCCc2ccc(-c3cccc(C4CC4C(=O)O)c3)cc2)nn(Cc2ccc(C(C)(C)C)cc2)c1=O` (stereo not drawn) [Example 35, 2-(4′-(3-(1-(4-(tert-Butyl)benzyl)-4-ethyl-5-oxo-4,5-dihydro-1H-1,2,4-triazol-3-yl)propyl)-[1,1′-biphenyl]-3-yl)cyclopropanecarboxylic acid] reads 1120 nM; that for `CCn1c(CCCc2ccc(-c3ccc(CS(=O)(=O)NCc4ccccc4)cc3)cc2)nn(Cc2ccc(C(C)(C)C)cc2)c1=O` [Example 104, N-Benzyl-1-(4′-(3-(1-(4-(tert-butyl)benzyl)-4-ethyl-5-oxo-4,5-dihydro-1H-1,2,4-triazol-3-yl)propyl)-[1,1′-biphenyl]-4-yl)methanesulfonamide], 591 nM; that for `CCn1c(CCCc2ccc(-c3ccc(OC)c(CNS(C)(=O)=O)c3)cc2)nn(Cc2ccc(C(C)(C)C)cc2)c1=O` [Example 186, 1-{[4-(tert-Butyl)phenyl]methyl}-4-ethyl-3-{3-[4-(4-methoxy-3-{[(methylsulfonyl)amino]methyl}phenyl)phenyl]propyl}-1,2,4-triazolin-5-one], 587 nM.
